Data from patent US20130005721A1, “INDOLIZINE INHIBITORS OF 5-LIPOXYGENASE” (PANMIRA PHARMACEUTICALS, LLC, priority 2009, published 2013).

Each compound was assayed on human leukocytes (LTB4 production, calcium ionophore stimulated) (assay: Human Leukocyte LTB4 Inhibition Assay). Conditions: LTB4 by ELISA, read-out: LTB4 HLA IC50.
Assay type: cell-based
Description: Human Leukocyte LTB4 Inhibition Assay
A non-limiting example of a human leukocyte inhibition assay is as follows; Blood was drawn from consenting human volunteers into heparanized tubes and 3% dextran 0.9% saline ⅓ rd volume added. After sedimentation of red blood cells a hypotonic lysis of remaining red blood cells was performed and leukocytes sedimented at 1200 rpm. The pellet was resuspended at 1.25×10^5 cells/ml and aliquoted into wells containing 1 μL 100% DMSO (vehicle) or 2.5 μL drug in 100% DMSO. Samples were incubated for 5 minutes at 37° C. and 2 μL calcium ionophore […] (from a 50 mM DMSO stock diluted just prior to the assay in Hanks balanced salt solution (Invitrogen)) to 1.25 mM) was added, solutions mixed and incubated for 30 minutes at 37° C. Samples were centrifuged at 1,200 rpm (−200×g) for 10 minutes at 4° C., plasma removed and a 1:4 dilution assayed for LTB4 concentration using ELISA (Assay Designs). Drug concentrations to achieve 50% inhibition (IC50's) of vehicle LTB4 were determined by nonlinear regression (Graphpad Prism) of % inhibition versus log drug concentration.
Compound `CCC(O)(c1nnc(NCc2ccn3c(-c4ccc(F)cc4)c(C(N)=O)cc3c2)o1)C(F)(F)F` (single isomer, unassigned) [Compound 1-21, 3-(4-Fluoro-phenyl)-7-{[5-(1-hydroxy-1-trifluoromethyl-propyl)-[1,3,4]oxadiazol-2-ylamino]-methyl}-indolizine-2-carboxylic acid amide] has an IC50 of under 0.3 µM.

Same assay, conditions: Leukocyte, LTB4 by ELISA, read-out: LTB4 HLA IC50
In the case of `CCC(O)(c1cn(Cc2ccn3c(-c4cccnc4)c(C#N)cc3c2)nn1)C(F)(F)F` (centres unmarked) [Compound 1-26, 7-[4-(1-Hydroxy-1-trifluoromethyl-propyl)-[1,2,3]triazol-1-ylmethyl]-3-pyridin-3-yl-indolizine-2-carbonitrile], the IC50 is reported as under 0.3 µM.
In the case of `CCC(O)(c1cn(Cc2ccn3c(-c4ccc(F)cc4)c(C(N)=O)c(Cl)c3c2)nn1)C(F)(F)F` (centres unmarked) [Compound 1-61, 1-Chloro-3-(4-fluoro-phenyl)-7-[4-(1-hydroxy-1-trifluoromethyl-propyl)-[1,2,3]triazol-1-ylmethyl]-indolizine-2-carboxylic acid amide], the IC50 is reported as under 0.3 µM.
Work on `CCOC(=O)c1cc2cc(Cn3cc(C(O)(CC)C(F)(F)F)nn3)ccn2c1-c1ccnc(C)c1` (centres unmarked) [Compound 1-63, 7-[4-(1-Hydroxy-1-trifluoromethyl-propyl)-[1,2,3]triazol-1-ylmethyl]-3-(2-methyl-pyridin-4-yl)-indolizine-2-carboxylic acid ethyl ester] yielded an IC50 of under 0.3 µM.
`CCC(O)(c1cn(Cc2ccn3c(C(C)C)c(C#N)cc3c2)nn1)C(F)(F)F` (single isomer, unassigned) [Compound 1-81, 7-[4-(1-Hydroxy-1-trifluoromethyl-propyl)-[1,2,3]triazol-1-ylmethyl]-3-isopropyl-indolizine-2-carbonitrile] was tested, and the IC50 was under 0.3 µM.
`CCC(OC(=O)c1ccc([N+](=O)[O-])cc1)(c1cn(Cc2ccn3c(-c4ccc(C)nc4)c(C(N)=O)cc3c2)nn1)C(F)(F)F` (single isomer, unassigned) [Compound 1-75, 4-Nitro-benzoic acid 1-{1-[2-carbamoyl-3-(6-methyl-pyridin-3-yl)-indolizin-7-ylmethyl]-1H-[1,2,3]triazol-4-yl}-1-trifluoromethyl-propyl ester] gave an IC50 of over 1 µM.
With `CCC(O)(c1nnc(NCc2ccn3c(-c4ccc(F)cc4)c(C(N)=O)cc3c2)o1)C(F)(F)F` (centres unmarked) [Compound 1-19, 3-(4-Fluoro-phenyl)-7-{[5-(1-hydroxy-1-trifluoromethyl-propyl)-[1,3,4]oxadiazol-2-ylamino]-methyl}-indolizine-2-carboxylic acid amide] the IC50 was under 0.3 µM.
With `CCOc1ccc(-c2c(C#N)cc3cc(Cn4cc(C(O)(CC)C(F)(F)F)nn4)ccn23)cn1` (centres unmarked) [Compound 1-59, 3-(6-Ethoxy-pyridin-3-yl)-7-[4-(1-hydroxy-1-trifluoromethyl-propyl)-[1,2,3]triazol-1-ylmethyl]-indolizine-2-carbonitrile] the IC50 was under 0.3 µM.
Compound `CCC(O)(c1cn(Cc2ccn3c(Cl)c(C(N)=O)cc3c2)nn1)C(F)(F)F` (single isomer, unassigned) [Compound 1-89, 3-Chloro-7-[4-(1-hydroxy-1-trifluoromethyl-propyl)-[1,2,3]triazol-1-ylmethyl]-indolizine-2-carboxylic acid amide] has an IC50 of over 1 µM.
Work on `CCC(O)(c1cn(Cc2ccn3c(-c4ccnc(C)c4)c(C#N)cc3c2)nn1)C(F)(F)F` (single isomer, unassigned) [Compound 1-80, 7-[4-(1-Hydroxy-1-trifluoromethyl-propyl)-[1,2,3]triazol-1-ylmethyl]-3-(2-methyl-pyridin-4-yl)-indolizine-2-carbonitrile] yielded an IC50 of under 0.3 µM.
For `CCC(O)(c1cn(Cc2ccn3c(-c4ccc(=O)n(C)c4)c(C(N)=O)cc3c2)nn1)C(F)(F)F` (centres unmarked) [Compound 1-68, 7-[4-(1-Hydroxy-1-trifluoromethyl-propyl)-[1,2,3]triazol-1-ylmethyl]-3-(1-methyl-6-oxo-1,6-dihydro-pyridin-3-yl)-indolizine-2-carboxylic acid amide], the IC50 was over 1 µM.
Compound `CCC(O)(c1cn(Cc2ccn3c(-c4ccc(F)cc4)c(C(C)(C)O)cc3c2)nn1)C(F)(F)F` (centres unmarked) [Compound 1-7, 1,1,1-Trifluoro-2-{1-[3-(4fluoro-phenyl)-2-(1-hydroxy-1-methyl-ethyl)-indolizin-7-ylmethyl]-1H-[1,2,3]triazol-4-yl}-butan-2-ol] has an IC50 of under 0.3 µM.
Work on `CCC(O)(c1nnc(NCc2ccn3c(-c4ccc(F)cc4)c(C(N)=O)c(Br)c3c2)o1)C(F)(F)F` (centres unmarked) [Compound 1-17, 1-Bromo-3-(4-fluoro-phenyl)-7-{[5-(1-hydroxy-1-trifluoromethyl-propyl)-[1,3,4]oxadiazol-2-ylamino]-methyl}-indolizine-2-carboxylic acid amide] yielded an IC50 of under 0.3 µM.
Compound `CCC(O)(c1cn(Cc2ccn3c(-c4ccnc(C)c4)c(C(N)=O)cc3c2)nn1)C(F)(F)F` (centres unmarked) [Compound 1-64, 7-[4-(1-Hydroxy-1-trifluoromethyl-propyl)-[1,2,3]triazol-1-ylmethyl]-3-(2-methyl-pyridin-4-yl)-indolizine-2-carboxylic acid amide] has an IC50 of over 1 µM.
`CCNCc1cc2cc(Cn3cc(C(O)(CC)C(F)(F)F)nn3)ccn2c1-c1ccc(F)cc1` (centres unmarked) [Compound 1-60, 2-{1-[2-Ethylaminomethyl-3-(4-fluoro-phenyl)-indolizin-7-ylmethyl]-1H-[1,2,3]triazol-4-yl}-1,1,1-trifluoro-butan-2-ol] gave an IC50 of over 1 µM.
With `CCC(O)(c1cn(Cc2ccn3c(-c4ccc(F)cc4)c(C#N)cc3c2)nn1)C(F)(F)F` (centres unmarked) [Compound 1-16, 3-(4-Fluoro-phenyl)-7-[4-(1-hydroxy-1-trifluoromethyl-propyl)-[1,2,3]triazol-1-ylmethyl]-indolizine-2-carbonitrile] the IC50 was under 0.3 µM.
Compound `CCOC(=O)c1cc2cc(Cn3cc(C(CC)(OC(=O)c4ccc([N+](=O)[O-])cc4)C(F)(F)F)nn3)ccn2c1-c1ccc(OC)nc1` (single isomer, unassigned) [Compound 1-85, 3-(6-Methoxy-pyridin-3-yl)-7-{4-[1-(4-nitro-benzoyloxy)-1-trifluoromethyl-propyl]-[1,2,3]triazol-1-ylmethyl}-indolizine-2-carboxylic acid ethyl ester] has an IC50 of 0.3 to 1 µM.
Work on `CCC(O)(c1cn(Cc2ccn3c(-c4ccc(OC)nc4)c(C(N)=O)c(C(=O)C(F)(F)F)c3c2)nn1)C(F)(F)F` (single isomer, unassigned) [Compound 1-82, 7-[4-(1-Hydroxy-1-trifluoromethyl-propyl)-[1,2,3]triazol-1-ylmethyl]-3-(6-methoxy-pyridin-3-yl)-1-(2,2,2-trifluoro-acetyl)-indolizine-2-carboxylic acid amide] yielded an IC50 of over 1 µM.
For `CCC(O)(c1cn(Cc2ccn3c(-c4ccc(F)cc4)c(C(N)=O)cc3c2)nn1)C(F)(F)F` (single isomer, unassigned) [Compound 1-9, 3-(4-Fluoro-phenyl)-7-[4-(1-hydroxy-1-trifluoromethyl-propyl)-[1,2,3]triazol-1-ylmethyl]-indolizine-2-carboxylic acid amide], the IC50 was under 0.3 µM.
`CCC(O)(c1nnc(NCc2ccn3c(-c4ccc(F)cc4)c(C#N)c(Br)c3c2)o1)C(F)(F)F` (centres unmarked) [Compound 1-18, 1-Bromo-3-(4-fluoro-phenyl)-7-{[5-(1-hydroxy-1-trifluoromethyl-propyl)-[1,3,4]oxadiazol-2-ylamino]-methyl}-indolizine-2-carbonitrile] showed an IC50 of under 0.3 µM.
